The test system of one assay is Jurkat cells. As to the kind of experiment: IL-2 secretion assay in CD3/CD28-activated Jurkat cells (AlphaLISA). The format is cell-based. The settings on record: Homo sapiens, CD3/CD28 T Cell Activator, 24 h, IL-2 AlphaLISA. A digest of the protocol: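 Jurkat cells (50,000/well) were preincubated 1 h at 37° C with compound in a 16-point 1:2 series spanning 10 μM to 300 pM final. Cells were then activated with CD3/CD28 T cell activator, and secreted IL-2 was read by AlphaLISA. EC50 came from 4-parameter logistic fits.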
For orientation: Alpha assays give light when donor and acceptor beads are brought close together.

Another assay addresses T1, Cbl-b (Homo sapiens, UniProt Q13191).
T1 construct: biotin (biotinylated)
Kind of assay: Cbl-b probe displacement HTRF binding assay. The conditions noted are these: 0.4 nM biotinylated Cbl-b, 150 nM BODIPY probe. A digest of the protocol:
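Biotinylated Cbl-b was preincubated with compound for 60 min at room temperature in HEPES/NaCl/Triton/TCEP/BSA buffer. BODIPY probe was added for 15 min, followed by streptavidin-terbium, and the HTRF signal was read. Displacement was normalised to DMSO and no-protein controls, and affinity was obtained from a four-parameter dose-response fit.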

SMILES strings stand for the structures.

T1 sequence (Q13191 whole entry, species assumed): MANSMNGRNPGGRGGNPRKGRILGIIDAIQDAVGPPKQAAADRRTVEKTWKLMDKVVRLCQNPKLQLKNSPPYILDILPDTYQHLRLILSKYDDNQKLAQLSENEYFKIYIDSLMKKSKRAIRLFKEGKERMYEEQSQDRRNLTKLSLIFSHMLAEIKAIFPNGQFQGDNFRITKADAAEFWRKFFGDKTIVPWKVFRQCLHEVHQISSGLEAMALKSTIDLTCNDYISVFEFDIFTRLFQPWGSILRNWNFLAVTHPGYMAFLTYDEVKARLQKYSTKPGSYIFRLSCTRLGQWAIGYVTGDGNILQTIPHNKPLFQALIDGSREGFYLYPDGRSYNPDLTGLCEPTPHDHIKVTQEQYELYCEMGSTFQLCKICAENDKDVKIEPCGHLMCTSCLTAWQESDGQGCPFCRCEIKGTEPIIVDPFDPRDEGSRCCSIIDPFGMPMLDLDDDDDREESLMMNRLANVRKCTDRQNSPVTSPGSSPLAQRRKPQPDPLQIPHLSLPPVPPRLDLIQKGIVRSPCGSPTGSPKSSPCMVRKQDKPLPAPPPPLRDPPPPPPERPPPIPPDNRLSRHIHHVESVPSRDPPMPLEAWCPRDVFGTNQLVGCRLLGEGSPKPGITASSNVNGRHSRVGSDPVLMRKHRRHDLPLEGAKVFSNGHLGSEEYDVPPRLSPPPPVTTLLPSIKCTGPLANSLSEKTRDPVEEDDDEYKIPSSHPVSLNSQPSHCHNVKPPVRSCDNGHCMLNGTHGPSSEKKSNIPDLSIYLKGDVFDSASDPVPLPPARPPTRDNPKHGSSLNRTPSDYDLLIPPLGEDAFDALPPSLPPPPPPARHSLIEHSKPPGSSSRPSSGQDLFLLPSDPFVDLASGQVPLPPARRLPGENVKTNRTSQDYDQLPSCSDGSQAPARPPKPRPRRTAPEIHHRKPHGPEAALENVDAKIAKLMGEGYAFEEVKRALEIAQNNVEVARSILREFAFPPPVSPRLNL

The EC50 is the concentration needed to bring the measured effect to its halfway point. A lower EC50 goes with a more potent agent. A word on the IC50: it is the concentration that inhibits the measured activity by half. Low values mean greater potency in that assay, high ones weaker potency in that assay. `CC1CC(c2cccc(-n3cc(C4CC4)c4cc(CN5CCN(C)C[C@@H]5C(C)C)[nH]c4c3=O)c2)(c2nncn2C)C1` (stereo partly drawn) [Example 68, 4-cyclopropyl-2-{[(2S)-4-methyl-2-(propan-2-yl)piperazin-1-yl]methyl}-6-{3-[(1r,3s)-3-methyl-1-(4-methyl-4H-1,2,4-triazol-3-yl)cyclobutyl]phenyl}-1H,6H,7H-pyrrolo[2,3-c]pyridin-7-one] gave an EC50 in the assay with Jurkat cells of 100 to 1000 nM. The molecule also showed an IC50 on Cbl-b of under 100 nM.

The molecule `CC1CC(c2cccc(-n3cc(C4CC4)c4cc(CN(C)S(C)(=O)=O)[nH]c4c3=O)c2)(c2nncn2C)C1` (stereo not drawn) [Example 69, N-[(4-cyclopropyl-7-oxo-6-{3-[(1r,3s)-3-methyl-1-(4-methyl-4H-1,2,4-triazol-3-yl)cyclobutyl]phenyl}-1H,6H,7H-pyrrolo[2,3-c]pyridin-2-yl)methyl]-N-methylmethanesulfonamide] had an EC50 in the assay on Jurkat cells of 1000 to 5000 nM. For the same molecule, on Cbl-b, the 50% inhibitory concentration (IC50) is 100 to 1000 nM.

Turning to `Cn1cnnc1C1(c2cccc(-n3cc(C4CC4)c4cc(CN5CCC6(CC6)C5)[nH]c4c3=O)c2)CC2(CC2)C1` [Example 70, 2-({5-azaspiro[2.4]heptan-5-yl}methyl)-4-cyclopropyl-6-{3-[5-(4-methyl-4H-1,2,4-triazol-3-yl)spiro[2.3]hexan-5-yl]phenyl}-1H,6H,7H-pyrrolo[2,3-c]pyridin-7-one], the EC50 with Jurkat cells lay in the range of 100 to 1000 nM. This molecule also displayed an IC50 on Cbl-b of under 100 nM.

In turn, `C[C@@H]1CN(Cc2cc3c(C4CC4)cn(-c4cccc(C5(c6nncn6C)CC6(CC6)C5)c4)c(=O)c3[nH]2)CCO1` [Example 71, 4-cyclopropyl-2-[[(2R)-2-methylmorpholin-4-yl]methyl]-6-[3-[5-(4-methyl-1,2,4-triazol-3-yl)spiro[2.3]hexan-5-yl]phenyl]-1H-pyrrolo[2,3-c]pyridin-7-one] returned an EC50 with Jurkat cells of 100 to 1000 nM. On Cbl-b, this molecule returned an IC50 of under 100 nM.

In turn, `CC(C)[C@H]1CNCCN1Cc1cc2c(C3CC3)cn(-c3cccc(C4(c5nncn5C)CC5(CC5)C4)c3)c(=O)c2[nH]1` [Example 72, 4-cyclopropyl-6-{3-[5-(4-methyl-4H-1,2,4-triazol-3-yl)spiro[2.3]hexan-5-yl]phenyl}-2-{[(2S)-2-(propan-2-yl)piperazin-1-yl]methyl}-1H,6H,7H-pyrrolo[2,3-c]pyridin-7-one] had an EC50 with Jurkat cells of 1000 to 5000 nM. At Cbl-b, the IC50 lay within 100 to 1000 nM.

On to `CC(C)[C@H]1CN(C)CCN1Cc1cc2c(C3CC3)cn(-c3cccc(C4(c5nncn5C)CC5(CC5)C4)c3)c(=O)c2[nH]1` [Example 73, 4-cyclopropyl-2-{[(2S)-4-methyl-2-(propan-2-yl)piperazin-1-yl]methyl}-6-{3-[5-(4-methyl-4H-1,2,4-triazol-3-yl)spiro[2.3]hexan-5-yl]phenyl}-1H,6H,7H-pyrrolo[2,3-c]pyridin-7-one], for which the EC50 with Jurkat cells fell in the range of 100 to 1000 nM. The molecule also came in with an IC50 at Cbl-b of under 100 nM.

In the case of `C[C@H]1CCCN(Cc2cc3c(C4CC4)cn(-c4cccc(C5(c6nncn6C)CC6(CC6)C5)c4)c(=O)c3[nH]2)C1` [Example 74, 4-cyclopropyl-2-[[(3S)-3-methylpiperidin-1-yl]methyl]-6-[3-[5-(4-methyl-1,2,4-triazol-3-yl)spiro[2.3]hexan-5-yl]phenyl]-1H-pyrrolo[2,3-c]pyridin-7-one], in the assay with Jurkat cells, the half-maximal effective concentration (EC50) was under 100 nM. The molecule also had an IC50 on Cbl-b of under 100 nM.

For the molecule `C[C@H]1CCCN(Cc2cc3c(C4CC4)cn(-c4cccc(C5(Cc6nncn6C)COC5)c4)c(=O)c3[nH]2)C1` [Example 75, 4-cyclopropyl-2-[[(3S)-3-methylpiperidin-1-yl]methyl]-6-[3-[3-[(4-methyl-1,2,4-triazol-3-yl)methyl]oxetan-3-yl]phenyl]-1H-pyrrolo[2,3-c]pyridin-7-one], the EC50 in the assay on Jurkat cells was under 100 nM. Moreover, the IC50 at Cbl-b was under 100 nM.

In the case of `Cn1cnnc1CC1(c2cccc(-n3cc(C4CC4)c4cc(CN5CCC6(CC6)C5)[nH]c4c3=O)c2)COC1` [Example 76, 2-({5-azaspiro[2.4]heptan-5-yl}methyl)-4-cyclopropyl-6-(3-{3-[(4-methyl-4H-1,2,4-triazol-3-yl)methyl]oxetan-3-yl}phenyl)-1H,6H,7H-pyrrolo[2,3-c]pyridin-7-one], in the assay with Jurkat cells, the EC50 was in the range of 100 to 1000 nM. The molecule further showed an IC50 at Cbl-b of under 100 nM.

For `C[C@H]1CCCN(Cc2cc3c(C4CC4)cn(-c4cccc(C5(c6nncn6C)CC(F)(F)C5)c4)c(=O)c3[nH]2)C1` [Example 78, 4-cyclopropyl-6-[3-[3,3-difluoro-1-(4-methyl-1,2,4-triazol-3-yl)cyclobutyl]phenyl]-2-[[(3S)-3-methylpiperidin-1-yl]methyl]-1H-pyrrolo[2,3-c]pyridin-7-one], the EC50 with Jurkat cells is under 100 nM. The 50% inhibitory concentration (IC50) at Cbl-b is under 100 nM.

As to `Cn1cnnc1C1(c2cccc(-n3cc(C4CC4)c4cc(CN5CCC(F)(F)C5)[nH]c4c3=O)c2)CC(F)(F)C1` [Example 79, 4-cyclopropyl-6-{3-[3,3-difluoro-1-(4-methyl-4H-1,2,4-triazol-3-yl)cyclobutyl]phenyl}-2-[(3,3-difluoropyrrolidin-1-yl)methyl]-1H,6H,7H-pyrrolo[2,3-c]pyridin-7-one], the concentration giving a half-maximal response (EC50) with Jurkat cells lay in the range of 100 to 1000 nM. On Cbl-b, this molecule displayed an IC50 of 100 to 1000 nM.

`Cn1cnnc1C1(c2cccc(-n3cc(C4CC4)c4cc(CN5CCC[C@@H]5CO)[nH]c4c3=O)c2)CC(F)(F)C1` [Example 82, 4-cyclopropyl-6-{3-[3,3-difluoro-1-(4-methyl-4H-1,2,4-triazol-3-yl)cyclobutyl]phenyl}-2-{[(2R)-2-(hydroxymethyl)pyrrolidin-1-yl]methyl}-1H,6H,7H-pyrrolo[2,3-c]pyridin-7-one]: the EC50 in the assay on Jurkat cells was in the range of 1000 to 5000 nM. For the same molecule, the IC50 at Cbl-b was under 100 nM.

Turning to `Cn1cnnc1C1(c2cccc(-n3cc(C4CC4)c4cc(CNCC5(O)CCC5)[nH]c4c3=O)c2)CC(F)(F)C1` [Example 83, 4-cyclopropyl-6-{3-[3,3-difluoro-1-(4-methyl-4H-1,2,4-triazol-3-yl)cyclobutyl]phenyl}-2-({[(1-hydroxycyclobutyl)methyl]amino}methyl)-1H,6H,7H-pyrrolo[2,3-c]pyridin-7-one], in the assay with Jurkat cells, the concentration giving a half-maximal response (EC50) is 100 to 1000 nM. This molecule also returned an IC50 on Cbl-b of under 100 nM.

For the molecule `CC(O)C1(NCc2cc3c(C4CC4)cn(-c4cccc(C5(c6nncn6C)CC(F)(F)C5)c4)c(=O)c3[nH]2)CC1` (stereo not drawn) [Example 84, 4-cyclopropyl-6-{3-[3,3-difluoro-1-(4-methyl-4H-1,2,4-triazol-3-yl)cyclobutyl]phenyl}-2-({[1-(1-hydroxyethyl)cyclopropyl]amino}methyl)-1H,6H,7H-pyrrolo[2,3-c]pyridin-7-one], the half-maximal effective concentration (EC50) with Jurkat cells lay in the range of 1000 to 5000 nM. At Cbl-b, this molecule displayed an IC50 of under 100 nM.

In the case of `Cn1cnnc1C1(c2cccc(-n3cc(C4CC4)c4cc(CNCC5(CO)CC5)[nH]c4c3=O)c2)CC(F)(F)C1` [Example 85, 4-cyclopropyl-6-{3-[3,3-difluoro-1-(4-methyl-4H-1,2,4-triazol-3-yl)cyclobutyl]phenyl}-2-[({[1-(hydroxymethyl)cyclopropyl]methyl}amino)methyl]-1H,6H,7H-pyrrolo[2,3-c]pyridin-7-one], the concentration giving a half-maximal response (EC50) with Jurkat cells is 100 to 1000 nM. In addition, the concentration for half-maximal inhibition (IC50) on Cbl-b is under 100 nM.

The molecule `Cn1cnnc1C1(c2cccc(-n3cc(C4CC4)c4cc(CN5CCOC6(CC6)C5)[nH]c4c3=O)c2)CC(F)(F)C1` [Example 86, 4-cyclopropyl-6-{3-[3,3-difluoro-1-(4-methyl-4H-1,2,4-triazol-3-yl)cyclobutyl]phenyl}-2-({4-oxa-7-azaspiro[2.5]octan-7-yl}methyl)-1H,6H,7H-pyrrolo[2,3-c]pyridin-7-one] showed an EC50 with Jurkat cells of 1000 to 5000 nM. The molecule also yielded a half-maximal inhibitory concentration (IC50) on Cbl-b of 100 to 1000 nM.

The molecule `Cn1cnnc1C1(c2cccc(-n3cc(C4CC4)c4cc(CN[C@@H]5CCCS(=O)(=O)C5)[nH]c4c3=O)c2)CC(F)(F)C1` [Example 87, (3R)-3-{[(4-cyclopropyl-6-{3-[3,3-difluoro-1-(4-methyl-4H-1,2,4-triazol-3-yl)cyclobutyl]phenyl}-7-oxo-1H,6H,7H-pyrrolo[2,3-c]pyridin-2-yl)methyl]amino}-1λ^6-thiane-1,1-dione] returned an EC50 with Jurkat cells of over 5000 nM. The molecule also had an IC50 on Cbl-b of 100 to 1000 nM.

Turning to `Cn1cnnc1C1(c2cccc(-n3cc(C4CC4)c4cc(CN5CCC6(CC6)C5)[nH]c4c3=O)c2)CC(F)(F)C1` [Example 88, 2-({5-azaspiro[2.4]heptan-5-yl}methyl)-4-cyclopropyl-6-{3-[3,3-difluoro-1-(4-methyl-4H-1,2,4-triazol-3-yl)cyclobutyl]phenyl}-1H,6H,7H-pyrrolo[2,3-c]pyridin-7-one], the EC50 in the assay with Jurkat cells was under 100 nM. At Cbl-b, this molecule gave an IC50 of under 100 nM.

In the case of `Cn1cnnc1C1(c2cccc(-n3cc(C4CC4)c4cc(CNC5(CF)CCC5)[nH]c4c3=O)c2)CC(F)(F)C1` [Example 89, 4-cyclopropyl-6-{3-[3,3-difluoro-1-(4-methyl-4H-1,2,4-triazol-3-yl)cyclobutyl]phenyl}-2-({[1-(fluoromethyl)cyclobutyl]amino}methyl)-1H,6H,7H-pyrrolo[2,3-c]pyridin-7-one], the EC50 with Jurkat cells fell in the range of 100 to 1000 nM. In addition, the half-inhibitory concentration (IC50) on Cbl-b is under 100 nM.

Molecule `Cn1cnnc1C1(c2cccc(-n3cc(C4CC4)c4cc(CNc5ccc(Cl)cc5F)[nH]c4c3=O)c2)CC(F)(F)C1` [Example 90, 2-{[(4-chloro-2-fluorophenyl)amino]methyl}-4-cyclopropyl-6-{3-[3,3-difluoro-1-(4-methyl-4H-1,2,4-triazol-3-yl)cyclobutyl]phenyl}-1H,6H,7H-pyrrolo[2,3-c]pyridin-7-one] yielded a concentration giving a half-maximal response (EC50) in the assay on Jurkat cells of over 5000 nM. For the same molecule, the IC50 at Cbl-b was over 5000 nM.

Turning to `Cn1cnnc1C1(c2cccc(-n3cc(C4CC4)c4cc(CN[C@@H]5CCOC5)[nH]c4c3=O)c2)CC(F)(F)C1` [Example 91, 4-cyclopropyl-6-{3-[3,3-difluoro-1-(4-methyl-4H-1,2,4-triazol-3-yl)cyclobutyl]phenyl}-2-{[(oxolan-3-yl)amino]methyl}-1H,6H,7H-pyrrolo[2,3-c]pyridin-7-one], the concentration for a half-maximal effect (EC50) in the assay on Jurkat cells was over 5000 nM. For the same molecule, the IC50 on Cbl-b was in the range of 100 to 1000 nM.

For the origin of these results see US20260028336A1 (Arcus Biosciences, Inc., priority 2022, published 2026).
